From patent US20170151221A1, “PHARMACEUTICAL COMPOSITIONS COMPRISING CEFEPIME OR SULBACTAM” (priority 2014, published 2017)
Like-named read-outs stand apart in the source and are kept apart here.

Tests used:
[1] = test system: A. baumannii 1363934 [OXA 51, OXA 23]; test: MIC by agar dilution (Muller Hinton Agar, CLSI); format: cell-based; details: Acinetobacter baumannii
Protocol: (§1) The antibacterial activity of combinations according to the invention was investigated against various bacterial strains. In a typical study, minimum inhibitory concentrations (MIC) were determined using Muller Hinton Agar (MHA) (BD, USA) according to Clinical and Laboratory Standards Institute (CLSI) recommendations, (Clinical and Laboratory Standards Institute (CLSI), Performance Standards for Antimicrobial Susceptibility Testing, 20th Informational Supplement, M 100-S20, Volume 30, No. 1, 2010). In short, the inocula were adjusted to deliver about 10^4 colony forming units (CFU) per spot with a multipoint inoculator (Applied Quality Services, UK). The plates were pored with doubling concentration range of the test combinations according to invention containing MHA. The plates were inoculated and were incubated at 35° C. for 18 hours.

[2] = test system: A. baumannii 1449880 [OXA 51, OXA 23]; test: MIC by agar dilution (Muller Hinton Agar, CLSI); format: cell-based; details: Acinetobacter baumannii
Protocol: as §1

[3] = test system: A. baumannii J 145 [OXA 51, OXA 24]; test: MIC by agar dilution (Muller Hinton Agar, CLSI); format: cell-based; details: Acinetobacter baumannii
Protocol: as §1

[4] = test system: A. baumannii NCTC 13302 [OXA 51, OXA 25]; test: MIC by agar dilution (Muller Hinton Agar, CLSI); format: cell-based; details: Acinetobacter baumannii
Protocol: as §1

[5] = test system: A. baumannii NCTC 13304 [OXA 51, OXA 27]; test: MIC by agar dilution (Muller Hinton Agar, CLSI); format: cell-based; details: Acinetobacter baumannii
Protocol: as §1

[6] = test system: A. baumannii S 8 [OXA 51, OXA 23]; test: MIC by agar dilution (Muller Hinton Agar, CLSI); format: cell-based; details: Acinetobacter baumannii
Protocol: as §1

[7] = test system: Acinetobacter baumannii NCTC 13301 producing Carbapenemase hydrolyzing OXA 23 enzyme; test: Time kill study; format: cell-based; details: for Bacterial count (Log10 CFU/ml): agent alone at 8 mcg/ml
Protocol: (§2) The synergistic killing effect of the combinations according to invention was studied by performing typical time kill studies. Typically, freshly grown cultures were diluted to the required cell density (initial starting inoculum) in Cation adjusted Muller Hinton broth medium (BD, USA). The antibacterial agents at the required concentrations were added into the culture-containing medium either alone or in combination. The samples were incubated under shaking condition (120 rpm) at 37° C. Enumeration of viable bacterial count was undertaken, every 2 hour, by diluting in normal saline and plating on to the Tryptic Soya Agar plates (BD, USA). The plates were incubated for 24 hours to arrive at the viable bacterial count. […] The decrease of 1 Log CFU/ml, after administration of combination of present invention, in comparison to initial bacterial count corresponds to 90% killing of bacteria. Similarly, 2 Log CFU/ml reductions corresponds to 99% killing of bacteria and 3 Log CFU/ml reductions is equal to 99.9% killing of bacteria.
(§3) The assay without any antibacterial agent was taken as control.

[8] = test system: Acinetobacter baumannii NCTC 13302 producing carbapenemase hydrolyzing OXA 25 enzyme; test: Time kill study; format: cell-based; details: for Bacterial count (Log10 CFU/ml): agent alone at 8 mcg/ml
Protocol: as §2, §3

[9] = test system: carbapenam hydrolyzing (CHDL) and oxacillinases (OXA) producing Acinetobactor strains; test: Antibacterial activity, summary statements over Tables 1-3; format: cell-based, Acinetobacter baumannii
Protocol: as §1, §2

[10] = read-out: MIC (mcg/ml) in presence of Compound of Formula (I) at 4 mcg/ml
[11] = read-out: MIC (mcg/ml) in presence of Compound of Formula (I) at 8 mcg/ml
[12] = cefepime, sulbactam, imipenem at 8 mcg/ml, compound of Formula (I) at 4 mcg/ml, alone or in combination, 8 hours

Question: What does the source list for CC1(C)[C@H](C(=O)O)N2C(=O)C[C@H]2S1(=O)=O [Sulbactam]?
Answer: MIC ([1]; read-out: MIC (mcg/ml)): 16 µg/mL; MIC [1, 10]: 2 µg/mL; MIC [1, 11]: 2 µg/mL; MIC ([2]; read-out: MIC (mcg/ml)): 8 µg/mL; MIC [2, 10]: 0.5 µg/mL; MIC [2, 11]: 0.5 µg/mL; MIC ([3]; read-out: MIC (mcg/ml)): 16 µg/mL; MIC [3, 10]: 2 µg/mL; MIC [3, 11]: 2 µg/mL; MIC ([4]; NCTC13302, read-out: MIC (mcg/ml)): 16 µg/mL; MIC ([4]; NCTC13302, read-out: MIC (mcg/ml) in presence of Compound of Formula (I) at 4 mcg/ml): 2 µg/mL; MIC ([4]; NCTC13302, read-out: MIC (mcg/ml) in presence of Compound of Formula (I) at 8 mcg/ml): 1 µg/mL; MIC ([5]; NCTC13304, read-out: MIC (mcg/ml)): 16 µg/mL; MIC ([5]; NCTC13304, read-out: MIC (mcg/ml) in presence of Compound of Formula (I) at 4 mcg/ml): 2 µg/mL; MIC ([5]; NCTC13304, read-out: MIC (mcg/ml) in presence of Compound of Formula (I) at 8 mcg/ml): 2 µg/mL; MIC ([6]; read-out: MIC (mcg/ml)): 16 µg/mL; MIC [6, 10]: 8 µg/mL; MIC [6, 11]: 4 µg/mL; Bacterial count (Log10 CFU/ml) ([7]; 0 hours): 6.32 Log10 CFU/ml; Bacterial count (Log10 CFU/ml) ([7]; 2 hours): 7.27 Log10 CFU/ml; Bacterial count (Log10 CFU/ml) ([7]; 4 hours): 7.65 Log10 CFU/ml; Bacterial count (Log10 CFU/ml) ([7]; 6 hours): 7.74 Log10 CFU/ml; Bacterial count (Log10 CFU/ml) ([7]; 8 hours): 7.81 Log10 CFU/ml; Effect on bacterial count throughout the duration of the study (in words) [7, 12]: not effective to decrease the bacterial count; Bacterial count (Log10 CFU/ml) ([8]; 0 hours): 6.30 Log10 CFU/ml; Bacterial count (Log10 CFU/ml) ([8]; 2 hours): 7.39 Log10 CFU/ml; Bacterial count (Log10 CFU/ml) ([8]; 4 hours): 7.69 Log10 CFU/ml; Bacterial count (Log10 CFU/ml) ([8]; 6 hours): 7.34 Log10 CFU/ml; Bacterial count (Log10 CFU/ml) ([8]; 8 hours): 7.34 Log10 CFU/ml; Effect on bacterial count throughout the duration of the study (in words) [8, 12]: not effective to decrease the bacterial count; Change of MIC values in the presence of compound of Formula (I) (in words) ([9]; Table 1 strains, compound of Formula (I) at 4 or 8 mcg/ml): significantly decreased; Antibacterial effect against highly resistant strains of A. baumannii (in words) ([9]; summary of Tables 1-3): ineffective
